From PubChem BioAssay (NCI)
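The concentration for 50% growth inhibition is given as GI50. At the TGI there is no net growth.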

Tests used:
Test in all cases: DTP human tumour cell line panel, 384-well format
[1] = system: KM12 colon
[2] = system: SR leukemia
[3] = system: MOLT-4 leukemia
[4] = system: SK-OV-3 ovarian
[5] = system: DU-145 prostate
[6] = system: SF-268 CNS
[7] = system: UO-31 renal
[8] = system: OVCAR-3 ovarian
[9] = system: SK-MEL-28 melanoma
[10] = system: EKVX NSCLC
[11] = system: U251 glioblastoma
[12] = system: NCI-H322M lung
[13] = system: M14 melanoma
[14] = system: HT29 colon
[15] = system: HOP-92 NSCLC
[16] = system: SNB-19 CNS
[17] = system: HCC-2998 colon
[18] = system: SF-539 CNS
[19] = system: HOP-62 NSCLC
[20] = system: 786-0 renal
[21] = system: NCI-H23 lung
[22] = system: OVCAR-8 ovarian
[23] = system: BT-549 breast
[24] = system: NCI/ADR-RES ovarian
[25] = system: SN12C renal
[26] = system: HCT-15 colon
[27] = system: PC-3 prostate
[28] = system: MALME-3M melanoma
[29] = system: NCI-H522 lung
[30] = system: OVCAR-5 ovarian
[31] = system: ACHN renal
[32] = system: MDA-MB-468 breast
[33] = system: IGROV1 ovarian
[34] = system: HCT-116 colon
[35] = system: OVCAR-4 ovarian
[36] = system: SNB-75 CNS
[37] = system: HS 578T breast
[38] = system: CCRF-CEM leukemia
[39] = system: SW-620 colon
[40] = system: MDA-MB-231 breast
[41] = system: SK-MEL-2 melanoma
[42] = system: UACC-62 melanoma
[43] = system: A498 renal
[44] = system: T-47D breast
[45] = system: UACC-257 melanoma
[46] = system: LOX IMVI melanoma
[47] = system: RPMI-8226 leukemia
[48] = system: MDA-MB-435 melanoma
[49] = system: SF-295 CNS
[50] = system: A549 NSCLC
[51] = system: NCI-H226 lung
[52] = system: RXF 393 renal
[53] = system: TK-10 renal
[54] = system: CAKI-1 renal
[55] = system: K-562 leukemia
[56] = system: COLO 205 colon
[57] = system: NCI-H460 NSCLC
[58] = system: MCF7 breast
[59] = system: SK-MEL-5 melanoma
[60] = system: HL-60(TB) leukemia

O=C(c1ccc(Oc2ccccc2)cc1Cl)c1c[nH]c2ncnc(N[C@@H]3CC[C@@H](CO)OC3)c12
GI50 [1]: 19.4 nM
TGI [1]: 171 nM
GI50 [2]: 186 nM
TGI [2]: 343 nM
GI50 [3]: 296 nM
TGI [3]: 1820 nM
GI50 [4]: 201 nM
TGI [4]: 965 nM
GI50 [5]: 354 nM
TGI [5]: 1480 nM
GI50 [6]: 482 nM
TGI [6]: 4890 nM
GI50 [7]: 305 nM
TGI [7]: 1450 nM
GI50 [8]: 130 nM
TGI [8]: 3180 nM
GI50 [9]: 13.3 nM
TGI [9]: 55.8 nM
GI50 [10]: 113 nM
TGI [10]: 1070 nM
GI50 [11]: 462 nM
TGI [11]: 2510 nM
GI50 [12]: 249 nM
TGI [12]: 1780 nM
TGI [13]: 48.9 nM
GI50 [14]: 33.4 nM
TGI [14]: 1300 nM
GI50 [15]: 273 nM
TGI [15]: 1190 nM
GI50 [16]: 372 nM
TGI [16]: 3950 nM
GI50 [17]: 29.9 nM
TGI [17]: 204 nM
GI50 [18]: 338 nM
TGI [18]: 1600 nM
GI50 [19]: 638 nM
TGI [19]: 2660 nM
GI50 [20]: 1110 nM
TGI [20]: 4610 nM
GI50 [21]: 67 nM
TGI [21]: 385 nM
GI50 [22]: 390 nM
TGI [22]: 2080 nM
GI50 [23]: 313 nM
TGI [23]: 1460 nM
GI50 [24]: 1130 nM
TGI [24]: 2480 nM
GI50 [25]: 193 nM
TGI [25]: 1380 nM
GI50 [26]: 510 nM
TGI [26]: 3340 nM
GI50 [27]: 2320 nM
TGI [27]: 11600 nM
TGI [28]: 24.7 nM
GI50 [29]: 49.4 nM
TGI [29]: 366 nM
GI50 [30]: 153 nM
TGI [30]: 938 nM
GI50 [31]: 121 nM
TGI [31]: 983 nM
GI50 [32]: 303 nM
TGI [32]: 1870 nM
GI50 [33]: 30.6 nM
TGI [33]: 987 nM
GI50 [34]: 248 nM
TGI [34]: 1110 nM
GI50 [35]: 1130 nM
TGI [35]: 7200 nM
GI50 [36]: 801 nM
TGI [36]: 2280 nM
GI50 [37]: 700 nM
TGI [37]: 2120 nM
GI50 [38]: 1590 nM
TGI [38]: 3400 nM
GI50 [39]: 151 nM
TGI [39]: 1270 nM
GI50 [40]: 46.3 nM
TGI [40]: 207 nM
GI50 [41]: 127 nM
TGI [41]: 289 nM
GI50 [42]: 10.7 nM
TGI [42]: 54.7 nM
GI50 [43]: 519 nM
TGI [43]: 2770 nM
GI50 [44]: 520 nM
TGI [44]: 3210 nM
GI50 [45]: 21.7 nM
TGI [45]: 83.9 nM
GI50 [46]: 33.1 nM
TGI [46]: 161 nM
GI50 [47]: 696 nM
TGI [47]: 2190 nM
GI50 [48]: 17 nM
TGI [48]: 170 nM
GI50 [49]: 1000 nM
TGI [49]: 3330 nM
GI50 [50]: 244 nM
TGI [50]: 1540 nM
GI50 [51]: 135 nM
TGI [51]: 937 nM
GI50 [52]: 210 nM
TGI [52]: 920 nM
GI50 [53]: 185 nM
TGI [53]: 543 nM
GI50 [54]: 261 nM
TGI [54]: 1440 nM
GI50 [55]: 153 nM
TGI [55]: 399 nM
GI50 [56]: 17.7 nM
TGI [56]: 113 nM
GI50 [57]: 771 nM
TGI [57]: 3650 nM
GI50 [58]: 255 nM
TGI [58]: 1910 nM
GI50 [59]: 33.7 nM
TGI [59]: 1470 nM
GI50 [60]: 36.8 nM
TGI [60]: 196 nM
